Assay results published in article PMC6017447, “Novel 6- and 7-Substituted Coumarins with Inhibitory Action against Lipoxygenase and Tumor-Associated Carbonic Anhydrase IX” (Molecules : A Journal of Synthetic Chemistry and Natural …, 2018).
Like-named read-outs stand apart in the source and are kept apart here.

How the values were obtained:
[1] = molecular target: T1, soybean lipoxygenase (LOX) (Glycine max, UniProt P08170); assay: in vitro inhibition of soybean lipoxygenase, UV absorbance based enzyme assay; format: biochemical; details: sodium linoleate 0.1 mM, pH 9; for % LOX Inhibition at 100 Μμ / inhibition at 100 µM: 100 μM compound; for inhibition at 100 µM: read-out: % LOX Inhibition at 100 Μμ
T1 construct: purchased Sigma Chemical, Co. (St. Louis, MO, USA)
T1 sequence (P08170 1-839): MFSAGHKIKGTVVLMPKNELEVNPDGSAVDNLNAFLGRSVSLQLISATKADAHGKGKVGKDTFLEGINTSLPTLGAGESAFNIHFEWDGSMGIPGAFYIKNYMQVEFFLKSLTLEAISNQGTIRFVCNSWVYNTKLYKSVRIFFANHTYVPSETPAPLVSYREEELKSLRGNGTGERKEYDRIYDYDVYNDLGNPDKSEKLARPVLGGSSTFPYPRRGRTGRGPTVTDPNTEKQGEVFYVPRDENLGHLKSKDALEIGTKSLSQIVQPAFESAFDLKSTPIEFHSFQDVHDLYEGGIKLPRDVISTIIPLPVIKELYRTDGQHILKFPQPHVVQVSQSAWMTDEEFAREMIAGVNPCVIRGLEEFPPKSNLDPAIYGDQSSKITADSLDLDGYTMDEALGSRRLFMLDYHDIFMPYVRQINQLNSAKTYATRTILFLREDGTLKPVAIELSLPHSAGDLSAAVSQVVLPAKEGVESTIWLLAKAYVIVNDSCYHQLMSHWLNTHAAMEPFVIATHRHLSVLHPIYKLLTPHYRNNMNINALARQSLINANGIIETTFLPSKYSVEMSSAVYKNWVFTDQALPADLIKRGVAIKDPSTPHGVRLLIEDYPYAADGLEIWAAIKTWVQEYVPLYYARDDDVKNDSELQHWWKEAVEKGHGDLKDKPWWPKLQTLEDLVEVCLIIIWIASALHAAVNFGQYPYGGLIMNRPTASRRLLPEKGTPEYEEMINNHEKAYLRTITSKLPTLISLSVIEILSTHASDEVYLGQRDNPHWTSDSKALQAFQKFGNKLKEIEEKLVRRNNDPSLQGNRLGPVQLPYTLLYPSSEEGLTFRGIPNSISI
Procedure: Most of the LOX inhibitors are antioxidants or free radical scavengers. LOXs contain a non-heme iron per molecule in the enzyme active site as high-spin Fe^2+ in the native state and the high spin Fe^3+ in the activated state.
A DMSO solution of the tested compound was incubated with sodium linoleate (0.1 mM) and 0.2 mL of soybean LOX solution (1/9 × 10^−4 w/v in saline) in buffer pH 9 (tris) and at room temperature.

[2] = molecular target: T1, soybean lipoxygenase (LOX); set-up: method as in doi:10.1007/s00044-017-1800-6; details: 100 μM compound; footnote d; cited from earlier work
[3] = molecular target: hCA IX (Homo sapiens, UniProt Q16790); assay: stopped flow CO2 hydrase assay, hCA IX
Procedure: (§1) An Applied Photophysics (Oxford, UK) stopped-flow instrument has been used for assaying the CA catalysed CO2 hydration activity [36]. […] The uncatalyzed rates were determined in the same manner and subtracted from the total observed rates. Stock solutions of inhibitor (0.1 mM) were prepared in distilled-deionized water and dilutions up to 0.01 nM were done thereafter with distilled-deionized water. […] The inhibition constants were obtained by non-linear least-squares methods using PRISM 3, as reported earlier [42, 43, 44, 45, 46, 47, 48, 49, 50] and represent the mean from at least three different determinations. The four CA isoforms were recombinant proteins obtained as reported earlier in our laboratory [42, 43, 44, 45, 46, 47, 48, 49, 50].

[4] = molecular target: hCA II (Homo sapiens, UniProt P00918); assay: stopped flow CO2 hydrase assay, hCA II
Procedure: as §1

[5] = molecular target: hCA I (Homo sapiens, UniProt P00915); assay: stopped flow CO2 hydrase assay, hCA I
Procedure: as §1

[6] = molecular target: hCA IV (Homo sapiens, UniProt P22748); assay: stopped flow CO2 hydrase assay, hCA IV
Sequence of hCA IV (P22748 19-312): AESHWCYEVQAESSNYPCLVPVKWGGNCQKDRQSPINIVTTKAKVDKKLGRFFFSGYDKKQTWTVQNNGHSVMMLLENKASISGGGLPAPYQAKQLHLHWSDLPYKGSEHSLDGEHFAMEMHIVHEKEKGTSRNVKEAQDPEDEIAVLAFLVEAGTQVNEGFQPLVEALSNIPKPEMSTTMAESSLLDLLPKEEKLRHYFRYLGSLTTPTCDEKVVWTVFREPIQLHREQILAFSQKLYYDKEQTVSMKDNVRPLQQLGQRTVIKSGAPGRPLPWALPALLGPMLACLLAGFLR
Procedure: as §1

Sequence of hCA I (P00915 whole entry): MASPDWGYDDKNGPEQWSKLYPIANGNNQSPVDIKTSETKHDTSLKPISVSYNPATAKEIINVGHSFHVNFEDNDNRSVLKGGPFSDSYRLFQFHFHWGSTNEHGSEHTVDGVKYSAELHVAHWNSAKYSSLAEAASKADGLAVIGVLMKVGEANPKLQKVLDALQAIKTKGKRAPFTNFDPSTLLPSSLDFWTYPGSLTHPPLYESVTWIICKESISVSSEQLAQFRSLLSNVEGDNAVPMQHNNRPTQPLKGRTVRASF

Molecule | % LOX Inhibition at 100 Μμ [1] | inhibition at 100 µM [1] | % LOX Inhibition at 100 Μμ [2] | Ki [3] | melting point | Ki [4] | Ki [5] | Ki [6] | IC50 [1]
2-((2-Oxo-2H-chromen-6-yl)oxy)-N-(pyridin-4-ylmethyl)acetamide [Compound 11b] | 37% | – | – | – | – | – | – | – | –
2-((2-Oxo-2H-chromen-7-yl)oxy)-N-(pyridin-4-ylmethyl)acetamide [Compound 11a] | 77% | – | – | – | – | – | – | – | –
O=c1ccc2cc(O)ccc2o1 [Compound 1b, 6-hydroxycoumarin] | – | 40% | – | – | – | – | – | – | –
CCOC(=O)COc1ccc2ccc(=O)oc2c1 [Compound 2a, Ethyl 2-((2-oxo-2H-chromen-7-yl)oxy)acetate] | – | – | 16% | 247 nM | 112.9 to 113 °C | > 10 µM | > 10 µM | 5.57 µM | –
CCOC(=O)COc1ccc2oc(=O)ccc2c1 [Compound 2b, Ethyl 2-((2-oxo-2H-chromen-6-yl)oxy)acetate] | – | – | 41% | 2040 nM | 120 to 122 °C | > 10 µM | > 10 µM | > 10 µM | –
O=C(O)COc1ccc2ccc(=O)oc2c1 [Compound 3a, 2-((2-Oxo-2H-chromen-7-yl)oxy)acetic acid] | – | – | 50% | 290 nM | – | > 10 µM | > 10 µM | 8.48 µM | –
O=C(O)COc1ccc2oc(=O)ccc2c1 [Compound 3b, 2-((2-Oxo-2H-chromen-6-yl)oxy)acetic acid] | – | – | 50% | 195 nM | – | > 10 µM | > 10 µM | > 10 µM | –
O=C(COc1ccc2ccc(=O)oc2c1)NCCc1ccccc1 [Compound 4a, 2-((2-Oxo-2H-chromen-7-yl)oxy)-N-phenethylacetamide] | – | 96% | – | 166 nM | 178 to 179 °C | > 10 µM | > 10 µM | > 10 µM | 10 µM
O=C(COc1ccc2oc(=O)ccc2c1)NCCc1ccccc1 [Compound 4b, 2-((2-Oxo-2H-chromen-6-yl)oxy)-N-phenethylacetamide] | – | 85% | – | 30.5 nM | 150 to 151 °C | > 10 µM | > 10 µM | > 10 µM | 10 µM
O=C(COc1ccc2ccc(=O)oc2c1)NCc1ccccc1 [Compound 5a, N-Benzyl-2-((2-oxo-2H-chromen-7-yl)oxy)acetamide] | – | 45% | – | 83.7 nM | 167 to 168 °C | > 10 µM | > 10 µM | > 10 µM | –
O=C(COc1ccc2oc(=O)ccc2c1)NCc1ccccc1 [Compound 5b, N-Benzyl-2-((2-oxo-2H-chromen-6-yl)oxy)acetamide] | – | 42% | – | 30.2 nM | 161 to 162 °C | > 10 µM | > 10 µM | > 10 µM | –
O=C(COc1ccc2ccc(=O)oc2c1)NCc1ccc(F)cc1 [Compound 6a, N-(4-Fluorobenzyl)-2-((2-oxo-2H-chromen-7-yl)oxy)acetamide] | – | 63% | – | 2540 nM | 160 to 161 °C | > 10 µM | > 10 µM | > 10 µM | 47 µM
O=C(COc1ccc2oc(=O)ccc2c1)NCc1ccc(F)cc1 [Compound 6b, N-(4-Fluorobenzyl)-2-((2-oxo-2H-chromen-6-yl)oxy)acetamide] | – | 26% | – | 2780 nM | 158 to 159 °C | > 10 µM | > 10 µM | > 10 µM | –
O=C(COc1ccc2ccc(=O)oc2c1)Nc1ccccc1 [Compound 7a, 2-((2-Oxo-2H-chromen-7-yl)oxy)-N-phenylacetamide] | – | 50% | – | 201 nM | 182 to 183 °C | > 10 µM | > 10 µM | > 10 µM | 100 µM
O=C(COc1ccc2oc(=O)ccc2c1)Nc1ccccc1 [Compound 7b, 2-((2-Oxo-2H-chromen-6-yl)oxy)-N-phenylacetamide] | – | 45% | – | 202 nM | 182 to 183 °C | > 10 µM | > 10 µM | 2.65 µM | –
O=C(COc1ccc2ccc(=O)oc2c1)Nc1ccc(F)cc1 [Compound 8a, N-(4-Fluorophenyl)-2-((2-oxo-2H-chromen-7-yl)oxy)acetamide] | – | 43% | – | 136 nM | 208 to 209 °C | > 10 µM | > 10 µM | 0.35 µM | –
O=C(COc1ccc2oc(=O)ccc2c1)Nc1ccc(F)cc1 [Compound 8b, N-(4-Fluorophenyl)-2-((2-oxo-2H-chromen-6-yl)oxy)acetamide] | – | 11% | – | 146 nM | 206 to 207 °C | > 10 µM | > 10 µM | 0.848 µM | –
COC(=O)c1ccccc1NC(=O)COc1ccc2ccc(=O)oc2c1 [Compound 9a, Methyl 2-(2-((2-oxo-2H-chromen-7-yl)oxy)acetamido)benzoate] | – | 33% | – | 2730 nM | 213 to 214 °C | > 10 µM | > 10 µM | > 10 µM | –
COC(=O)c1ccccc1NC(=O)COc1ccc2oc(=O)ccc2c1 [Compound 9b, Methyl 2-(2-((2-oxo-2H-chromen-6-yl)oxy)acetamido)benzoate] | – | 50% | – | 2040 nM | 213 to 214 °C | > 10 µM | > 10 µM | > 10 µM | 100 µM
O=C(COc1ccc2ccc(=O)oc2c1)NCCc1ccccn1 [Compound 10a, 2-((2-Oxo-2H-chromen-7-yl)oxy)-N-(2-(pyridin-2-yl)ethyl)acetamide] | – | 79% | – | 2380 nM | 138 to 139 °C | > 10 µM | > 10 µM | > 10 µM | 15 µM
O=C(COc1ccc2oc(=O)ccc2c1)NCCc1ccccn1 [Compound 10b, 2-((2-Oxo-2H-chromen-6-yl)oxy)-N-(2-(pyridin-2-yl)ethyl)acetamide] | – | 40% | – | 2150 nM | 141 to 142 °C | > 10 µM | > 10 µM | > 10 µM | –
O=C(COc1ccc2ccc(=O)oc2c1)NCCN1CCOCC1 [Compound 12a, N-(2-Morpholinoethyl)-2-((2-oxo-2H-chromen-7-yl)oxy)acetamide] | – | 56% | – | > 10000 nM | 148 to 149 °C | > 10 µM | > 10 µM | > 10 µM | 42.5 µM
O=C(COc1ccc2oc(=O)ccc2c1)NCCN1CCOCC1 [Compound 12b, N-(2-Morpholinoethyl)-2-((2-oxo-2H-chromen-6-yl)oxy)acetamide] | – | 64% | – | > 10000 nM | 149 to 150 °C | > 10 µM | > 10 µM | > 10 µM | 16.5 µM
O=C(COc1ccc2ccc(=O)oc2c1)NCCN1CCCCC1 [Compound 13a, 2-((2-Oxo-2H-chromen-7-yl)oxy)-N-(2-(piperidin-1-yl)ethyl)acetamide] | – | 50% | – | 1970 nM | 116 to 117 °C | > 10 µM | > 10 µM | > 10 µM | 100 µM
O=C(COc1ccc2oc(=O)ccc2c1)NCCN1CCCCC1 [Compound 13b, 2-((2-Oxo-2H-chromen-6-yl)oxy)-N-(2-(piperidin-1-yl)ethyl)acetamide] | – | 37.6% | – | 274 nM | 115 to 116 °C | > 10 µM | > 10 µM | > 10 µM | –
